Here are results for 22 molecules from PubChem BioAssay (NCI).

Holding throughout (assay): DTP human tumour cell line panel, 48 h
Test [1] concerns HT29 colon.
The subject of test [2] is NCI-H226 lung.
The subject of test [3] is CAKI-1 renal.
Test [4] concerns MDA-N.
Test [5] deals with K-562 leukemia.
Test [6] concerns UACC-62 melanoma.
Test [7] relates to OVCAR-3 ovarian.
Test [8] concerns HS 578T breast.
For test [9], the system named is MDA-MB-231 breast.
In test [10] the test system is PC-3 prostate.

Values joined by “and” are separate entries in the source; they are usually repeats but may differ in a detail not shown here. Equal entries are not always repeated.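 Exposure lasted 48 hours, with cells grown in 96-well plates and compounds tested at five concentrations. GI50 = concentration required for 50% inhibition of growth. TGI: concentration producing complete growth inhibition.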

What is called TGI is the concentration giving total growth inhibition. As for `CC(C)CNC1=NCC(C)S1` (configuration not stated), the TGI in test [1], in [2], in test [3], in test [4], in [5] and in [6] was more than 100 µM each time. The TGI in test [7], in test [8], in [9] and in [10] was more than 100 µM throughout.
As a reminder, the GI50 is the concentration giving 50% growth inhibition. For the molecule `Cc1[nH]c(C(=O)Nc2ccc(C(=O)NCCN)cc2OC(C)C)c(Cl)c1Cl`, the GI50 is 1.63 µM in test [3], 1.7 µM in test [6], 1.69 µM in [9] and 1.82 µM in test [10]. The TGI in test [3] came to 3.04 µM; in test [6], 3.08 µM; in test [9] it was 3.27 µM; in [10], 3.53 µM.
In the case of `C=C(CN(C)C)C(=O)c1ccccc1OC`, the TGI was 46 µM in [1]; 62.7 µM in [2]; 26.1 µM in test [3]; 34 µM in test [4]; more than 54.1 µM in [5]; 37 µM in test [6]. The TGI in [7] is 32.9 µM; in test [8], 56.8 µM; in test [9] it was 28 µM; in test [10], 31.9 µM.
Turning to `COc1cc(/C=N/NC(=O)c2c(Cl)c(Cl)c(Cl)c(Cl)c2-c2nc3ccc(C(=O)c4ccccc4)cc3[nH]2)ccc1O`, the TGI in test [1] was more than 100 µM; in [2], more than 100 µM; in test [3], more than 100 µM; in test [4], 52 µM; in test [5], more than 100 µM; in [7] it was more than 100 µM. For the same molecule, the TGI in test [8], in test [9] and in test [10] was more than 100 µM throughout.
`O=S(=O)(c1ccccc1)C1CC(c2nc3ccccc3[nH]2)=NO1` (configuration not stated): the TGI in test [1], in test [2], in test [3], in test [4], in test [5] and in test [6] was more than 100 µM throughout. Further, the TGI in [7], in [8], in test [9] and in test [10] was more than 100 µM in each case.
For `C[N+]1(C(CO)Cc2c[nH]c3ccccc23)Cc2ccccc2C1` (configuration not stated), the TGI in test [1], in test [2], in test [3], in test [4], in test [5] and in test [6] was more than 100 µM throughout. The TGI in test [7], in [8], in test [9] and in test [10] was more than 100 µM throughout.
In the case of `CC(C)CCN(CCC(C)C)CC(=O)Nc1ccc(S(=O)(=O)c2ccc(NC(=O)CN(CCC(C)C)CCC(C)C)cc2)cc1`, the GI50 in test [1] was 1.58 µM; in test [2], 2.91 µM; in test [6], 1.55 µM; in [7], 1.41 µM; in test [8] it was 5.37 µM; in test [9] it was 2.08 µM. In addition, in [10], the GI50 was 2.01 µM. Besides, the TGI is 3.29 µM in test [1]; 11.5 µM in [2]; 3.52 µM in test [6]; 3.03 µM in [7]; 70.3 µM in test [8]; 6.39 µM in test [9]. In test [10], this molecule returned a TGI of 5.89 µM.
Turning to `C[C@]12CC[C@H]3[C@@H](CC=C4C[C@@H](O)CC[C@@]43C)[C@@H]1C/C(=C\c1ccncc1)[C@@H]2O`, the TGI is more than 100 µM in [1]; 57.2 µM in test [2]; 57.4 µM in test [3]; 54.4 µM in [4]; more than 100 µM in [5]; 30.7 µM in test [6]. Further, the TGI in [7] was more than 100 µM; in test [8] it was more than 100 µM; in test [9], 99.2 µM; in test [10], 43 µM.
For the molecule `Cc1ncc(C(=O)Nc2ccc(CN3CCN(C)CC3)c(C(F)(F)F)c2)cc1C#Cc1cnc(N)c2ccc(C#N)cc12`, the GI50 was 0.0345 µM in test [2], less than 0.0108 µM in test [6] and 0.0949 µM in [7]. Also, the values for the TGI in test [2], in test [6] and in [7] were 0.593 µM, 0.0717 µM and 8.09 µM, respectively.
As for `O=C1Nc2cccc(Cl)c2/C1=C\c1cccnc1`, the TGI in test [1] was more than 100 µM; in test [3], 24.2 µM; in test [5] it was 36.5 µM; in test [7] it was 21.2 µM; in [8], 91.9 µM; in test [10], more than 100 µM.
In the case of `Cc1csc2nc(-c3cccc([N+](=O)[O-])c3)c(/C=N/N=C(N)N)n12`, the TGI in test [1] turned out to be 3.27 µM; in test [3], 8.71 µM; in test [4], 3.04 µM; in [6] it was 2.8 µM; in test [7], 4.24 µM; in test [8], 3.45 µM. The TGI in test [9] was found to be 2.95 µM; in test [10], 3.08 µM.
As to `c1ccc(CSC(SCc2ccccc2)c2cccc3ccccc23)cc1`, the TGI in [1], in test [2], in [3], in test [4], in test [5] and in test [6] was more than 10 µM throughout. Also, the TGI in [8], in test [9] and in test [10] was more than 10 µM throughout.
On to `COC(=O)c1c(O)ccc2c1c1c(n2CCc2ccc(OC)c(OC)c2)C(=O)c2ccccc2C1=O`, for which the TGI was 10.5 µM in [1]; 50.3 µM in test [2]; 38.3 µM in [3]; 25.5 µM in [4]; more than 100 µM in test [5]; 32.9 µM in [6]. Also, the TGI in [7] came to 40.6 µM; in test [8] it was 37.2 µM; in test [9], 52.3 µM; in [10] it was 35.9 µM.
Regarding `N#CC1(CCCI)CCCC1`, the TGI in test [1] was 80.6 µM; in test [5], more than 100 µM; in test [6], 35.8 µM; in [7] it was 31.1 µM.
Turning to `CC[C@@]1(O)CC(OC2CC(N3CCOCC3)C(O)C(C)O2)c2c(O)c3c(c(O)c2[C@H]1O)C(=O)c1cccc(O)c1C3=O` (some centres not stated), the GI50 was 0.0228 µM in test [1]; 0.0184 µM in test [2]; 0.0426 µM in [5]; 0.0389 µM in test [6]; 0.176 µM in [7]. For the same molecule, the TGI was 3.23 µM and 2.33 µM in [1]; 0.597 µM and 0.102 µM in test [2]; 0.318 µM and 0.243 µM in test [3]; 1.04 µM in test [4]; 6.69 µM and 4.03 µM in [5]; 0.428 µM and 0.301 µM in test [6]. Besides, the TGI in [7] is 2.73 µM and 1.63 µM; in test [8], 1.61 µM; in test [9] it was 1.94 µM; in test [10], 0.811 µM.
Regarding `CC(=O)OC(C(=O)O)C(OC(C)=O)C(OC(C)=O)C(OC(C)=O)C(=O)O` (configuration not stated), the TGI in [1], in test [2], in [3], in test [4], in [5] and in test [6] was more than 100 µM each time. In addition, the TGI in test [7], in test [8], in test [9] and in test [10] was more than 100 µM throughout.
Take `O=C1OC(c2ccc(O)cc2)(c2ccc(O)cc2)c2ccc(Cl)c3cccc1c23` (tested in a mixture with another compound): the TGI in test [1] is 23.9 µM; in test [2] it was 34 µM; in test [3], 22 µM; in test [4], 25.7 µM; in test [5] it was more than 75 µM; in test [6], 21.9 µM. For the same molecule, the TGI in test [7] was more than 75 µM; in test [8] it was 40.6 µM; in test [9], 26.1 µM; in test [10], 20.6 µM.
Turning to `O=C(O)c1cc2ccccc2c(N=Nc2ccc(S(=O)(=O)Nc3ccccn3)cc2)c1O`, the TGI in test [1], in [2], in test [3], in test [4], in [5] and in test [6] was more than 100 µM each time. For the same molecule, the TGI in test [7], in [8], in [9] and in [10] was more than 100 µM each time.
As for `c1ccc(/C(=N\Nc2nc3ccccc3[nH]2)c2ccccn2)cc1`, the TGI is 2.69 µM in test [1]; 2.09 µM in test [2]; 8.79 µM in test [3]; 18.4 µM in [4]; more than 100 µM in [5]; 6.23 µM in test [6]. For the same molecule, the TGI in test [7] was found to be 2.99 µM; in test [8] it was 51.7 µM; in [9], 41.2 µM; in [10], 37.7 µM.
For `O=C(CSCC(=O)N/N=C\c1ccc(F)cc1F)N/N=C\c1ccc(F)cc1F`, the TGI in test [1], in [2], in test [3], in test [6], in [7] and in test [8] was more than 100 µM in each case. In addition, the TGI in test [9] is more than 100 µM.
On to `CCCCCCCCCCCCc1ccc(S(=O)(=O)O)cc1.[Cu+2]`, for which the TGI in [1], in test [3], in test [4], in test [5], in [6] and in test [7] was more than 100 µM throughout. Also, the TGI in [8], in test [9] and in test [10] was more than 100 µM throughout.
As to `COc1ccccc1C#C/C=C\C#Cc1ccccc1C#N`, the TGI in [1] is more than 100 µM; in test [3] it was 61.5 µM; in test [5], more than 100 µM; in test [6], more than 100 µM; in [7], 24.5 µM; in test [8] it was 65.4 µM. Moreover, the TGI in test [10] was more than 100 µM.
